From patent US12479820B2, “Pyridin-3-yl derivatives” (Idorsia Pharmaceuticals Ltd, priority 2019, dated 2025)

Molecular target: T1, human LPA1 receptor (Homo sapiens, UniProt Q92633)
T1 construct: TEV protease site; Gal4-VP16 transcription factor; host or cells: Tango EDG2-bla U2OS cells
Assay: Beta-arrestin recruitment assay to determine IC50 values for human LPAR1
Type: cell-based
Conditions: Tango EDG2-bla U2OS cells, antagonist assay, LPA 18:1 500 nM final
From the text: Beta-Arrestin Recruitment Assay to Determine IC50 Values for Human LPAR1
The Tango™ EDG2-bla U2OS cells are obtained from Invitrogen. These cells contain the human LPA1 receptor cDNA linked to a TEV protease site and a Gal4-VP16 transcription factor integrated into the Tango™ GPCR-bla U2OS parental cell line. This parental cell line stably expresses a beta-arrestin/TEV protease fusion protein and the beta-lactamase (bla) reporter gene under the control of a UAS response element. Upon LPA (agonist) binding, LPA1 receptor gets activated, leading to arrestin-protease recruitment and proteolytic release of the transcription factor: The transcription factor then regulates transcription of a beta-lactamase reporter construct, which is measured upon addition of the live-cell substrate.
10′000 Tango™ EDG2-bla U2OS cells are seeded in a 384-well black with clear bottom plate in 30 μl Freestyle 293 Expression Medium (Invitrogen) and incubated for 20 h at 37° C., 5% CO2. For antagonist assays, 5 μl of test compound (dilution series in DMSO/Freestyle 293 Expression medium/0.1% fatty acid free BSA (Sigma)) or buffer control are added per well and incubated for 30 min at 37° C., 5% CO2. 5 μl of LPA 18:1 (500 nM final) (solution in Freestyle 293 Expression medium/0.1% fatty acid free BSA (Sigma)) are added per well and the plate incubated for 16 h at 37° C., 5% CO2. Cells are then loaded with LiveBLAzer-FRET™ B/G Substrate (Invitrogen) for 2 h in the dark and the fluorescence emission at 460 nm and 530 nm is measured using the SynergyMx reader (BioTek). Following the background subtraction from both channels, the 460/530 nm emission ratio for each well is calculated, then plotted and fitted to a 4-parameter logistic function to obtain IC50 values. IC50 is the concentration of antagonist inhibiting 50% of the maximal response.

T1 sequence (Q92633 whole entry, the tested form may be a part): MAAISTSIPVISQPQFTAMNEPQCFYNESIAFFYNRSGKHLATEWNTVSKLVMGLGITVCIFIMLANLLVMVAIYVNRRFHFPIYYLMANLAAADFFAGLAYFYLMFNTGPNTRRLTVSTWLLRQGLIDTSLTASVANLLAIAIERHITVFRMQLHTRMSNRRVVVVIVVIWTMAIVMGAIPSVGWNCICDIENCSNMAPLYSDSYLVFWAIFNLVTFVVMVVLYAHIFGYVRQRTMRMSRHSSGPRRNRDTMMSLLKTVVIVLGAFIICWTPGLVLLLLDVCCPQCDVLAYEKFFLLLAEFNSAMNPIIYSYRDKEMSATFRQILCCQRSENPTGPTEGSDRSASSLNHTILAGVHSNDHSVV

Molecule | IC50 [nM]
COc1cc(Cl)ncc1NC(=O)C1(c2ccccc2C(C)C)CN(Cc2cn[nH]c2)C1 [Example 18-14, 1-((1H-pyrazol-4-yl)methyl)-N-(6-chloro-4-methoxypyridin-3-yl)-3-(2-isopropylphenyl)azetidine-3-carboxamide] | 74
COc1cc(C)ncc1NC(=O)C1(c2ccccc2C(C)C)CN(S(N)(=O)=O)C1 [Example 21-10, 3-(2-isopropylphenyl)-N-(4-methoxy-6-methylpyridin-3-yl)-1-sulfamoylazetidine-3-carboxamide] | 37
COC[C@H](C)Oc1cc(Cl)ncc1NC(=O)C1(c2ccccc2C(C)C)CN(S(N)(=O)=O)C1 [Example 21-7, (S)-N-(6-chloro-4-((1-methoxypropan-2-yl)oxy)pyridin-3-yl)-3-(2-isopropylphenyl)-1-sulfamoylazetidine-3-carboxamide] | 3
COc1cc(Cl)ncc1NC(=O)C1(c2ccccc2C(C)C)CN(S(C)(=O)=O)C1 [Example 20-1, N-(6-chloro-4-methoxypyridin-3-yl)-3-(2-isopropylphenyl)-1-(methylsulfonyl)azetidine-3-carboxamide] | 11
COc1cc(Cl)ncc1NC(=O)C1(c2ncccc2C(C)C)CN(S(N)(=O)=O)C1 [Example 21-16, N-(6-chloro-4-methoxypyridin-3-yl)-3-(3-isopropylpyridin-2-yl)-1-sulfamoylazetidine-3-carboxamide] | 12
CC(C)Oc1cc(Cl)ncc1NC(=O)C1(c2ccccc2C(C)C)CNC1 [Example 6, N-(6-chloro-4-isopropoxypyridin-3-yl)-3-(2-isopropylphenyl)azetidine-3-carboxamide] | 3
COc1cc(Cl)ncc1NC(=O)C1(c2ccccc2C(C)C)CN(C(=O)NCCC(=O)O)C1 [Example 22-14, 3-(3-((6-chloro-4-methoxypyridin-3-yl)carbamoyl)-3-(2-isopropylphenyl)azetidine-1-carboxamido)propanoic acid] | 204
COc1cc(Cl)ncc1NC(=O)C1(c2ccccc2C(C)C)CN(C(=O)C2COC2)C1 [Example 19-4, N-(6-chloro-4-methoxypyridin-3-yl)-3-(2-isopropylphenyl)-1-(oxetane-3-carbonyl)azetidine-3-carboxamide] | 385
COc1cc(Cl)ncc1NC(=O)C1(c2c(F)cccc2C(C)C)CN(S(N)(=O)=O)C1 [Example 21-14, N-(6-chloro-4-methoxypyridin-3-yl)-3-(2-fluoro-6-isopropylphenyl)-1-sulfamoylazetidine-3-carboxamide] | 4
COc1cc(C)ncc1NC(=O)C1(c2ccccc2C(C)C)CNC1 [Example 11, 3-(2-isopropylphenyl)-N-(4-methoxy-6-methylpyridin-3-yl)azetidine-3-carboxamide] | 36
COc1cc(Cl)ncc1NC(=O)C1(c2cc(F)ccc2C(C)C)CN(S(N)(=O)=O)C1 [Example 21-15, N-(6-chloro-4-methoxypyridin-3-yl)-3-(5-fluoro-2-isopropylphenyl)-1-sulfamoylazetidine-3-carboxamide] | 5
COc1cc(F)ncc1NC(=O)C1(c2ccccc2C(C)C)CNC1 [Example 1, N-(6-fluoro-4-methoxypyridin-3-yl)-3-(2-isopropylphenyl)azetidine-3-carboxamide] | 48
COc1cc(Br)ncc1NC(=O)C1(c2ccccc2C(C)C)CN(CCC(C)(C)C(=O)O)C1 [Example 18-23, 4-(3-((6-bromo-4-methoxypyridin-3-yl)carbamoyl)-3-(2-isopropylphenyl)azetidin-1-yl)-2,2-dimethylbutanoic acid] | 56
4-(4-((6-chloro-4-methoxypyridin-3-yl)carbamoyl)-4-(2-isopropylphenyl)piperidin-1-yl)-2,2-dimethyl-4-oxobutanoic acid [Example 19-20] | 22
COc1cc(Cl)ncc1NC(=O)C1(c2ccccc2C(C)C)CN(c2ccncc2F)C1 [Example 24-2, N-(6-chloro-4-methoxypyridin-3-yl)-1-(3-fluoropyridin-4-yl)-3-(2-isopropylphenyl)azetidine-3-carboxamide] | 2
COc1cc(Cl)ncc1NC(=O)C1(c2ccccc2C(C)C)CN(C(=O)Cn2cc(CO)nn2)C1 [Example 19-9, N-(6-chloro-4-methoxypyridin-3-yl)-1-(2-(4-(hydroxymethyl)-1H-1,2,3-triazol-1-yl)acetyl)-3-(2-isopropylphenyl)azetidine-3-carboxamide] | 52
CCOC(=O)CNC(=O)N1CC(C(=O)Nc2cnc(Cl)cc2OC)(c2ccccc2C(C)C)C1 [Example 22-11, ethyl (3-((6-chloro-4-methoxypyridin-3-yl)carbamoyl)-3-(2-isopropylphenyl)azetidine-1-carbonyl)glycinate] | 18
COc1cc(Cl)ncc1NC(=O)C1(c2ccccc2C(C)C)CN(c2nc(C(=O)O)co2)C1 [Example 24-26, 2-(3-((6-chloro-4-methoxypyridin-3-yl)carbamoyl)-3-(2-isopropylphenyl)azetidin-1-yl)oxazole-4-carboxylic acid] | 91
COc1cc(Br)ncc1NC(=O)C1(c2ccccc2C(C)C)CN(C(=O)CC(C)(C)C(=O)O)C1 [Example 19-19, 4-(3-((6-bromo-4-methoxypyridin-3-yl)carbamoyl)-3-(2-isopropylphenyl)azetidin-1-yl)-2,2-dimethyl-4-oxobutanoic acid] | 21
COc1cc(Cl)ncc1NC(=O)C1(c2ccccc2C(C)C)CN(c2cc(C)ncn2)C1 [Example 24-14, N-(6-chloro-4-methoxypyridin-3-yl)-3-(2-isopropylphenyl)-1-(6-methylpyrimidin-4-yl)azetidine-3-carboxamide] | 8
COc1cc(Cl)ncc1NC(=O)C1(c2ccccc2C(C)C)CN(CC2(F)CC2)C1 [Example 18-10, N-(6-chloro-4-methoxypyridin-3-yl)-1-((1-fluorocyclopropyl)methyl)-3-(2-isopropylphenyl)azetidine-3-carboxamide] | 76
COCCOC(=O)N1CC(C(=O)Nc2cnc(Cl)cc2OC)(c2ccccc2C(C)C)C1 [Example 23-2, 2-Methoxyethyl 3-((6-chloro-4-methoxypyridin-3-yl)carbamoyl)-3-(2-isopropylphenyl)azetidine-1-carboxylate] | 69
COc1cc(Cl)ncc1NC(=O)C1(c2ccccc2C(C)C)CN(C(C)=O)C1 [Example 19-2, 1-acetyl-N-(6-chloro-4-methoxypyridin-3-yl)-3-(2-isopropylphenyl)azetidine-3-carboxamide] | 19
COc1cc(Cl)ncc1NC(=O)C1(c2cc(F)ccc2C(C)C)CNC1 [Example 14, N-(6-chloro-4-methoxypyridin-3-yl)-3-(5-fluoro-2-isopropylphenyl)azetidine-3-carboxamide] | 12
COc1cc(Cl)ncc1NC(=O)C1(c2ccccc2C(C)C)CN(C(=O)N2CCOCC2)C1 [Example 22-16, N-(6-chloro-4-methoxypyridin-3-yl)-3-(2-isopropylphenyl)-1-(morpholine-4-carbonyl)azetidine-3-carboxamide] | 201
COc1cc(Cl)ncc1NC(=O)C1(c2ccccc2C(C)C)CN(CCc2nnn[nH]2)C1 [Example 18-4, 1-(2-(1H-tetrazol-5-yl)ethyl)-N-(6-chloro-4-methoxypyridin-3-yl)-3-(2-isopropylphenyl)azetidine-3-carboxamide] | 143
